Consider six compounds from paper PMC7312762, “Acetylcholinesterase Inhibition of Diversely Functionalized Quinolinones for Alzheimer’s Disease Therapy” (International Journal of Molecular Sciences, 2020).

Broadly, the inhibition is the share of the control response that was lost under treatment. As a reminder, the IC50 is the concentration that inhibits the measured activity by half. One may read the Ki as a measure of affinity in units of concentration, obtained from inhibition or displacement. High values mean weaker binding, low ones tighter binding.

What all share (type): biochemical
The target of assay [1] is T1, human recombinant acetylcholinesterase (hrAChE) (Homo sapiens, UniProt P22303).
T1 construct: made in house; host or cells: Hek293 derivatives (transient transfection, pcDNA3.4), collected from culture supernatant
T1 sequence (P22303 32-614): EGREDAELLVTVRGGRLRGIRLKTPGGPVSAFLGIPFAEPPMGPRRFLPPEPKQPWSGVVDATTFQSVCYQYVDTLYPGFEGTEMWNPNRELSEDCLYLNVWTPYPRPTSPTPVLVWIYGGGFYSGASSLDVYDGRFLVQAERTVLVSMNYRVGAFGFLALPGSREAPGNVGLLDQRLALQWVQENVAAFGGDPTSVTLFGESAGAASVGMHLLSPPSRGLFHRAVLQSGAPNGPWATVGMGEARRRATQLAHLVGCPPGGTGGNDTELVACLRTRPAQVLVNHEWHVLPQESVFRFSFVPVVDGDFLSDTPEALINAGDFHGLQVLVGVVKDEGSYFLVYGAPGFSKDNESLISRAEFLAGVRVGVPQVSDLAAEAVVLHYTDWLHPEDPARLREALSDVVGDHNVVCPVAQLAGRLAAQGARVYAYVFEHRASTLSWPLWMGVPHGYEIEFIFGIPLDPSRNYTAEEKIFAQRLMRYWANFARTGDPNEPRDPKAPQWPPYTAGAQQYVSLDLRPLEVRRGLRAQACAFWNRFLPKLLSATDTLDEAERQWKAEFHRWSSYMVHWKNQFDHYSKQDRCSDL
The experiment in a line: hrAChE inhibition, Ellman method (screening and IC50). Particulars: for inhibition at 10 µM: read-out: hrAChE inhibition; for IC50: mean ± standard error of the mean, triplicate determinations; for hrAChE inhibition (screening, in words): screening at 1 and 10 µM. As for the experimental part:
(§1) The hrAChE and hrBuChE were prepared as recombinant proteins at the University of Hradec Kralove. For their production, the mammalian expression system was used. Briefly, the DNA sequence encoding human AChE and BuChE was obtained from UniProtKB Server (www.uniprot.org, accession numbers: P22303 and P06276) and de novo synthesized as GeneArt Strings DNA fragments by GeneArt Gene Synthesis Service (Thermo Fisher Scientific, Pardubice, Czech Republic). The DNA fragments were PCR-amplified using gene-specific primers, adding the DNA sequence for C-terminal 6× His-tag. The amplicons were inserted into the mammalian pcDNA3.4 vector by TOPO cloning technology, and the final DNA constructs were verified by Sanger sequencing (ABI PRISM 3130xl). For protein expression, the DNA constructs were transiently transfected into Hek293 derivatives. Recombinant proteins were collected from culture supernatant 6 days later and stored at −80 °C for further purification.
(§2) The hrAChE and hrBuChE were purified using a NGC Medium-Pressure Chromatography System (Bio-Rad, USA). The total volume of 6–8 mL of medium containing secreted protein was desalted using 5 mL HiTrap Desalting column (GE Healthcare, Prague, Czech Republic) equilibrated with buffer A (20 mM sodium phosphate buffer, 150 mM NaCl, 15 mM imidazole, and 20% glycerol; pH 7.4). Acquired supernatant was loaded onto a 1 mL HisTrap FF column (GE Healthcare, Prague, Czech Republic) equilibrated with buffer A. Captured proteins were eluted with buffer B (20 mM sodium phosphate buffer, 150 mM NaCl, 500 mM imidazole, and 20% glycerol; pH 7.4). Imidazole was subsequently removed by repeated centrifugation in Amicon Ultra-4 (Ultracel-10K) tube (Merck Millipore). Protein concentration was determined by linearized Bradford method adapted for 96-well plate.
(§3) The catalytic activity of enzymes was determined by standard Ellman method adapted for 96-well plates. […]. The mixture was pre-incubated at 37 °C for 15 min, and subsequently substrate acetylthiocholine iodide (ATChI) or butyrylthiocholine iodide (BuTChI) was added to the final concentration of 1000 µM. The final volume of reaction was 100 µL. The product formed during the reaction 5-thio-2-nitrobenzoic acid (TNB) was determined by following its absorbance at 436 nm. The catalytic activity was evaluated as amount of product (%) formed by enzyme after 10 min of incubation at 37 °C. IC50 values of individual compounds were determined by non-linear regression using GraphPad Prism 7.
For orientation: In Ellman's method for cholinesterases, released thiocholine reacts with DTNB.

The target of assay [2] is T2, human recombinant butyrylcholinesterase (hrBuChE) (Homo sapiens, UniProt P06276).
T2 construct: made in house; host or cells: Hek293 derivatives (transient transfection, pcDNA3.4), collected from culture supernatant
T2 sequence (P06276 29-602): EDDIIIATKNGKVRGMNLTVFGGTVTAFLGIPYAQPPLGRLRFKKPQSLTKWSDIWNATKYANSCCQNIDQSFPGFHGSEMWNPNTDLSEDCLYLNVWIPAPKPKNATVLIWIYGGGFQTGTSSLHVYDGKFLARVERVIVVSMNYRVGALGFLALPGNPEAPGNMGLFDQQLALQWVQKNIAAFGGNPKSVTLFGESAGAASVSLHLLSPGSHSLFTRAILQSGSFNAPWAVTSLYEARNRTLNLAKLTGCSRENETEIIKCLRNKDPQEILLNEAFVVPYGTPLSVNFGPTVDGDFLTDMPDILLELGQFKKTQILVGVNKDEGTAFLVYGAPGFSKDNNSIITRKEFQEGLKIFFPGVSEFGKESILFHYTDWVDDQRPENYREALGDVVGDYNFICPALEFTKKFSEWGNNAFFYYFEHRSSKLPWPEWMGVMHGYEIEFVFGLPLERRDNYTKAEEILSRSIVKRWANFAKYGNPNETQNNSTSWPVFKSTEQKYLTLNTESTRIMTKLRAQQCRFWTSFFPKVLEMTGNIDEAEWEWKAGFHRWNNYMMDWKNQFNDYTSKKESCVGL
Description: hrBuChE inhibition, Ellman method (screening and IC50). The note with it: for inhibition at 10 µM: at 10 µM concentration; for IC50: mean ± standard error of the mean, triplicate determinations. As for the experimental part: as §1, §2, §3

The target of the next assay is T3, hrAChE (Homo sapiens, UniProt P22303).
T3 construct: made in house; host or cells: Hek293 derivatives (transient transfection, pcDNA3.4), collected from culture supernatant
T3 sequence (P22303 32-614): as the sequence (P22303 32-614) above
Description: Inhibition kinetics of hrAChE (Lineweaver-Burk). As for the experimental part: Compound with the highest inhibition potential against hrAChE was further analysed regarding its inhibition kinetics parameters (inhibition mechanism and inhibitory constant). […]. Inhibition mechanism and kinetic constant were determined by non-linear regression and double reciprocal method by Lineweaver-Burk using GraphPad Prism 7.

Like-named read-outs stand apart in the source and are kept apart here.

In the case of `CC(C)N1CCN(CCCCCOc2ccc3ccc(=O)[nH]c3c2)CC1` [QN9, 7-[5-(4-Isopropylpiperazin-1-yl)pentyloxy]quinolin-2(1H)-one], the “Selectivity Index IC50 (hrBuChE)/IC50 (hrAChE)” value (“Selectivity Index IC50” for short) in assay [1] was 7. Besides, the results for the inhibition at 10 µM in assay [1] (at 10 µM concentration) and in assay [2] were 88 to 95% and 45 to 65%, respectively. Further, the 50% inhibitory concentration (IC50) in assay [1] was found to be 960 ± 40 nM; in assay [2] it was 6700 ± 320 nM.

For `CN1CCN(CCCCCOc2ccc3ccc(=O)[nH]c3c2)CC1` [QN5, 7-[5-(4-Methylpiperazin-1-yl)pentyloxy]quinolin-2(1H)-one], the “hrAChE inhibition (screening, in words)” value in assay [1] is on record as “low inhibition percentage”.

Consider `CN1CCN(CCCCOc2ccc3c(c2)NC(=O)CC3)CC1` [DQN3, 7-[4-(4-Methylpiperazin-1-yl)butoxy]-3,4-dihydroquinolin-2(1H)-one], for which the “hrAChE inhibition (screening, in words)” value in assay [1] is on record as “low inhibition percentage”.

Take `CN1CCN(CCCCOc2ccc3ccc(=O)[nH]c3c2)CC1` [QN4, 7-[4-(4-Methylpiperazin-1-yl)butoxy]quinolin-2(1H)-one]: in assay [1], the “hrAChE inhibition (screening, in words)” value is listed as “low inhibition percentage”.

Take `CC(C)N1CCN(CCCCOc2ccc3c(c2)NC(=O)CC3)CC1` [DQN7, 7-[4-(4-Isopropylpiperazin-1-yl)butoxy]-3,4-dihydroquinolin-2(1H)-one]: in assay [1], the “Selectivity Index IC50” value was 11, the IC50 was determined as 1580 ± 150 nM and the inhibition at 10 µM fell in the range of 88 to 95%. In addition, in assay [2], the inhibition at 10 µM lay in the range of 45 to 65% and the IC50 was determined as 16700 ± 460 nM.

On to `CC(C)N1CCN(CCCCOc2ccc3ccc(=O)[nH]c3c2)CC1` [QN8, 7-[4-(4-Isopropylpiperazin-1-yl)butoxy]quinolin-2(1H)-one], for which, in assay [1], the “Selectivity Index IC50” value is 44 and the half-maximal inhibitory concentration (IC50) was 290 ± 20 nM. The inhibition at 10 µM in assay [1] (at 10 µM concentration) is 88 to 95%. Also, in assay [2], the inhibition at 10 µM is 45 to 65% and the IC50 turned out to be 12700 ± 450 nM. On hrAChE (kinetic experiments), the “type of hrAChE inhibition” value is “non-competitive”. Moreover, affinity at hrAChE (non-competitive inhibition, ATChI 25-2000 µM) was put at a Ki of 79 nM.
